Test system: B16-SIY cells
Experiment: Unaffected fraction (synergy) analysis of tumor growth inhibition of combination therapies
Type: in vivo, C57BL/6 mice
Settings: for Predicted TGI: expected for purely additive effect
Experimental: Treatment was initiated on day 4 post tumor inoculation with the following regimens for each drug. αCTLA-4 antibody (clone UC10-4F10-11, Bio-X-Cell) was given i.p. on day 4, 7 and 10 at a dose of 100 μg/mouse. αPD-L1 antibody (clone 10F.9G2, Bio-X-Cell) was given i.p. (100 μg/mouse) every other day starting on day 4 ending on day 16 post tumor inoculation. IDOi (INCB23843, Incyte Corporation) was dissolved in 0.5% methylcellulose and administered at 300 mg/kg po QD on a 5 days on/2 days off schedule starting on day 4. In the case of functional experiments with an earlier endpoint, treatment regimens were carried out as described until the day of T cell analysis. A comparison between IDOi and IDOc (INCB24360, Incyte Corporation) was perfomed according to the treatment regime described above. Tumor outgrowth was followed starting day 7 onwards and is depicted in combination with anti-CTLA4 (FIG. 18A) or anti-PD-L1 (FIG. 18B). N=5 mice per group, and a two-way Anova test was used to determine significance between the groups.
Treatment was administered in the same fashion as described for FIG. 9, with the exception that IDOi (INCB23843) was replaced by IDOc (INCB24360) in the indicated groups.
Synergy analysis was performed with day 15 data and with day 23 data. Actual tumor growth inhibition (TGI) is the experimental TGI seen in this experiment for the combinations, and predicted TGI is the TGI that would have been expected for a purely additive combination effect from the performance of the individual agents in this experiment. Actual TGIs higher than predicted TGIs reflect better than additive (synergistic) data.

[1] = Day 15 (end of dosing), in combination with anti CTLA4
[2] = Day 15 (end of dosing), in combination with antiPDL1
[3] = Day 23 (last day of vehicles), in combination with anti CTLA4
[4] = Day 23 (last day of vehicles), in combination with antiPDL1

NS(=O)(=O)NCCNc1nonc1/C(=N/O)Nc1ccc(F)c(Br)c1 [IDOc]
Actual TGI [1]: 74%
Predicted TGI [1]: 66%
Actual TGI [2]: 81%
Predicted TGI [2]: 24%
Actual TGI [3]: 93%
Predicted TGI [3]: 65%
Actual TGI [4]: 82%
Predicted TGI [4]: 35%

Reference: patent US10967060B2, “Synergistic combination of immunologic inhibitors for the treatment of cancer” (The University of Chicago, priority 2012, dated 2021)
